The source of these data is patent publication US9012431B2, “Boron-containing small molecules as anti-inflammatory agents” (Anacor Pharmaceuticals, Inc., priority 2008, dated 2015).

Structures are written as SMILES. Read-outs that look alike come from different tables or passages of the source.

For one data set, the target named is hERG-channel (Homo sapiens, UniProt Q12809). The data set can be described thus: hERG-channel block. The format is biochemical. As to conditions: C17 at 1 μM. (Block of hERG is tested as a sign of cardiac risk.)
The target of the next data set is PDE5 (Homo sapiens, UniProt O76074). The data set can be described thus: PDE5 inhibition. The format is biochemical.
The next data set addresses T1, PDE2 (Homo sapiens, UniProt O00408).
T1 construct: made in house; host or cells: baculoviral expression system
The data set can be described thus: PDE2 inhibition. The class given is biochemical.

The test system of data set [1] is TNF-α, IFN-γ, IL-1μ, IL-2, IL-4, IL-5, IL-6, IL-8, IL-10, IL-12, and IL-23. The data set can be described thus: Release of pro-inflammatory cytokines (summary statement). The class given is cell-based. From the text: This activity is explained in part by the inhibition of phosphodiesterase-4 (PDE-4).
The test system of a further data set is TNF-α. The data set can be described thus: Cytokine assay, TNF-α release from PBMC. The class given is cell-based. As to conditions: Homo sapiens, PBMC, 24 h, 1 μg/mL LPS, supernatant at 24 hours. A digest of the protocol: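 Using previously frozen human PBMC resuspended in medium of RPMI 1640 supplemented with 10% FBS, test article at 10, 1, 0.1 and 0.01 μM was evaluated in triplicate; DMSO stock was 10 mM.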

The subject of data set [2] is IL-23 production from human THP-1 macrophages. As to the kind of experiment: IL-23 production by THP-1 cells stimulated with IFN-g and LPS. The format is cell-based.
Data set [3] relates to TNF-α secretion from peripheral blood mononuclear cells (PBMCs). As to the kind of experiment: TNF-α secretion from PBMCs stimulated by LPS. The format is cell-based, human. As to conditions: PBMC. From the text: Compounds were screened by a biochemical assay against PDE4 enzyme and cell-based cytokine release assays using PBMCs stimulated by LPS or phytohemagglutinin (PHA).

In data set [4] the test system is IL-1β production by human PBMCs. The data set can be described thus: IL-1β production by LPS- or PHA-stimulated PBMCs. The class given is cell-based.

hERG-channel, sequence (Q12809 whole entry): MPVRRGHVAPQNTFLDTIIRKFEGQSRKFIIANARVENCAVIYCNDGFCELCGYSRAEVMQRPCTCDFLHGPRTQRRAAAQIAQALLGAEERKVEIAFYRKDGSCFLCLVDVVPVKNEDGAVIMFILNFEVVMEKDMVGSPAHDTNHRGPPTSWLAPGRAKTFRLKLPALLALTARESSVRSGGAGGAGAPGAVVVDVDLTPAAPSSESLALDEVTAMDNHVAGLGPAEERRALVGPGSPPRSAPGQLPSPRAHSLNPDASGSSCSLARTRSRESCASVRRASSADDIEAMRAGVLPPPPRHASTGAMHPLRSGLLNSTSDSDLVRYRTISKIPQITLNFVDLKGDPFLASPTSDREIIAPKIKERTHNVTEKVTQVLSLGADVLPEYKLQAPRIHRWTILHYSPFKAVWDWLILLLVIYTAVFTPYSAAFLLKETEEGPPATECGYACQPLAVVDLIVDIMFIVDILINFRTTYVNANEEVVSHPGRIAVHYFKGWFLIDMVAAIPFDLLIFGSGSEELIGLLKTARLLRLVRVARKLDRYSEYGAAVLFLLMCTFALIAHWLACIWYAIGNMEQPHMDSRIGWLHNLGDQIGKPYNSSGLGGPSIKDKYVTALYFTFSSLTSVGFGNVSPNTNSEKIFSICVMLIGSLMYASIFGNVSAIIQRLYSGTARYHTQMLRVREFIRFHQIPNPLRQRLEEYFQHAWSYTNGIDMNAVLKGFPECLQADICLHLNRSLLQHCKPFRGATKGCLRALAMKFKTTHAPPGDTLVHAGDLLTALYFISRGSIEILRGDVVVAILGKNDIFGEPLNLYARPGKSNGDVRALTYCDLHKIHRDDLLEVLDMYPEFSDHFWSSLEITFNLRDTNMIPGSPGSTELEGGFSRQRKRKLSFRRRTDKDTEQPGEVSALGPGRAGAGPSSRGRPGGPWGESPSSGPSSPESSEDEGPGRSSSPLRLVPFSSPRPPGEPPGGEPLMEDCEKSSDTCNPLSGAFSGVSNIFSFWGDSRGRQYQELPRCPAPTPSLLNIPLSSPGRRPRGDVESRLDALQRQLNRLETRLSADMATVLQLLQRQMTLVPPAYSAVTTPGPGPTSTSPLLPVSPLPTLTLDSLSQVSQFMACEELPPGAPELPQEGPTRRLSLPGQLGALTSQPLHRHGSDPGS
T1 sequence (O00408 whole entry): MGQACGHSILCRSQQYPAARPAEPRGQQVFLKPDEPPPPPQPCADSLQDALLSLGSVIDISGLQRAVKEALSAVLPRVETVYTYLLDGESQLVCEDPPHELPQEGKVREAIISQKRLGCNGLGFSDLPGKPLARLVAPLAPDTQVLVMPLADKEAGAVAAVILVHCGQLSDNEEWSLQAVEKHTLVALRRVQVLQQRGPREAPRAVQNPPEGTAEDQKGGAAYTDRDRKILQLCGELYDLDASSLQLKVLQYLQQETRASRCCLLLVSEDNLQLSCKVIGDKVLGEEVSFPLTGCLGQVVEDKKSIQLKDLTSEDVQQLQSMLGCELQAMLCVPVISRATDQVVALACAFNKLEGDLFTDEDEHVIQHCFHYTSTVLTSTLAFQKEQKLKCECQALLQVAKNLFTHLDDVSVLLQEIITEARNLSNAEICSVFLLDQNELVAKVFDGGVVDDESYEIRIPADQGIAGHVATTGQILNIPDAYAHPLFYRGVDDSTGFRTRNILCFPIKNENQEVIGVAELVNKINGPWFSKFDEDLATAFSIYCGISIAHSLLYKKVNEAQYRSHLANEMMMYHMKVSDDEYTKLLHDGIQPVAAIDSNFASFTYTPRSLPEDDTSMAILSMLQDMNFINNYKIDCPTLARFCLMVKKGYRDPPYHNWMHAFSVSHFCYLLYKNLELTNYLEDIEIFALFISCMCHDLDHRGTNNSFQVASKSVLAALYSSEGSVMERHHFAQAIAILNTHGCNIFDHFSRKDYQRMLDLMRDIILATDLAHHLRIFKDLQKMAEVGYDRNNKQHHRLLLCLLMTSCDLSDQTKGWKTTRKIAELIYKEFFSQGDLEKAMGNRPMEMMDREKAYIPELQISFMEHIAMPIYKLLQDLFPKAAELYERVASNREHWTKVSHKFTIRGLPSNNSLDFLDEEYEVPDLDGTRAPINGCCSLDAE

`N#Cc1ccc(Oc2ccc3c(c2)COB3O)cc1` [C17, 5-(4-cyanophenoxy)-1-hydroxy-1,3-dihydro-2,1-benzoxaborole]: the hERG-channel blocker classification result at hERG-channel was “low potency hERG-channel blocker”. For the same compound, on PDE5, the “inhibition of PDE5” value is listed as “does not significantly inhibit”. On PDE2, the “inhibition of PDE2” value is listed as “does not significantly inhibit”. Besides, the “release of pro-inflammatory cytokines including TNF-α, IFN-γ, IL-1μ, IL-2, IL-4, IL-5, IL-6, IL-8, IL-10, IL-12, and IL-23” value in data set [1] is given as “inhibition of the release”. The IC50 – broadly, the concentration needed to halve the response being measured – with TNF-α was < 1000 nM; in data set [2] (human THP-1 macrophages, read-out: IL-23 production IC50), 2250 nM; in data set [2] (human THP-1 monocytic cells stimulated with IFN-g and LPS, read-out: IC50 IL-23*), 1000 to 10000 nM; in data set [3] (Homo sapiens, PBMCs stimulated by LPS, read-out: TNF-α secretion IC50) it was 770 nM; in data set [3] (LPS- and PHA-induced cytokine production by human PBMCs, read-out: IC50 TNFα (pro-inflammatory cytokines)), < 1000 nM; in data set [4] (PBMC, LPS- and PHA-induced cytokine production by human PBMCs, read-out: IC50 IL-1β (pro-inflammatory cytokines)), > 30000 nM. The “effect on IL-1” value in data set [4] (PBMCs) was “not affected”.
